According to PMC11530689, “Anti colorectal cancer activity and in silico studies of novel pyridine nortopsentin analog as cyclin dependent kinase 6 inhibitor” (Scientific Reports, 2024):

What was measured:
Experiment in all cases: NCI 60 cell line screen
HCT-116 = type: cell-based, human; details: HCT-116, Colon Cancer; single concentration 10^−5 M
Protocol: (§1) The cytotoxic activity of nortopsintin analogs (4a-4j) was determined by the national cancer institute (NCI, Bethesda, Maryland, USA) against 60 different cancer cell lines at a single concentration of (10^-5 M). For the determination of IC50 value, we used MTT assay kit (Sigma) according to the manufacturer's protocol. HCT-116 cells were seeded into a 96-well plate at a concentration of 20,000 cells/well. After 24 h, the media was aspirated and replaced with serum-free media containing serial dilutions of the 4i compound. […] The percentage of cytotoxicity was calculated using the following equation: % Cytotoxicity = [1 - ([…])] × 100.

IGROV1 = type: cell-based; details: IGROV1, Ovarian Cancer; single concentration 10^−5 M
Protocol: as §1

A498 = type: cell-based; details: A498, Renal Cancer; single concentration 10^−5 M
Protocol: as §1

MCF7 = type: cell-based; details: MCF7, Breast Cancer; single concentration 10^−5 M
Protocol: as §1

UO-31 = type: cell-based; details: UO-31, Renal Cancer; single concentration 10^−5 M
Protocol: as §1

KM12 = type: cell-based; details: KM12, Colon Cancer; single concentration 10^−5 M
Protocol: as §1

SF-539 = type: cell-based; details: SF-539, CNS Cancer; single concentration 10^−5 M
Protocol: as §1

NCI-H460 = type: cell-based; details: NCI-H460, Non-Small Cell Lung Cancer; single concentration 10^−5 M
Protocol: as §1

HT29 = type: cell-based; details: HT29, Colon Cancer; single concentration 10^−5 M
Protocol: as §1

ACHN = type: cell-based; details: Renal Cancer, single concentration 10^−5 M
Protocol: as §1

A549/ATCC = type: cell-based; details: Non-Small Cell Lung Cancer, single concentration 10^−5 M
Protocol: as §1

CCRF-CEM = type: cell-based; details: Leukemia, single concentration 10^−5 M
Protocol: as §1

COLO205 = type: cell-based; details: COLO205, Colon Cancer; single concentration 10^−5 M
Protocol: as §1

NCI-H522 = type: cell-based; details: NCI-H522, Non-Small Cell Lung Cancer; single concentration 10^−5 M
Protocol: as §1

OVCAR-5 = type: cell-based; details: OVCAR-5, Ovarian Cancer; single concentration 10^−5 M
Protocol: as §1

U251 = type: cell-based; details: U251, CNS Cancer; single concentration 10^−5 M
Protocol: as §1

SNB-19 = type: cell-based; details: SNB-19, CNS Cancer; single concentration 10^−5 M
Protocol: as §1

PC-3 = type: cell-based; details: PC-3, Prostate Cancer; single concentration 10^−5 M
Protocol: as §1

MDA-MB-231/ATCC = type: cell-based; details: Breast Cancer, single concentration 10^−5 M
Protocol: as §1

786-0 = type: cell-based; details: 786-0, Renal Cancer; single concentration 10^−5 M
Protocol: as §1

OVCAR-8 = type: cell-based; details: OVCAR-8, Ovarian Cancer; single concentration 10^−5 M
Protocol: as §1

NCI-H322M = type: cell-based; details: Non-Small Cell Lung Cancer, single concentration 10^−5 M
Protocol: as §1

SF-295 = type: cell-based; details: SF-295, CNS Cancer; single concentration 10^−5 M
Protocol: as §1

UACC-62 = type: cell-based; details: UACC-62, Melanoma; single concentration 10^−5 M
Protocol: as §1

MALME-3M = type: cell-based; details: Melanoma, single concentration 10^−5 M
Protocol: as §1

HCC-2998 = type: cell-based; details: HCC-2998, Colon Cancer; single concentration 10^−5 M
Protocol: as §1

OVCAR-4 = type: cell-based; details: OVCAR-4, Ovarian Cancer; single concentration 10^−5 M
Protocol: as §1

HOP-92 = type: cell-based; details: HOP-92, Non-Small Cell Lung Cancer; single concentration 10^−5 M
Protocol: as §1

HOP-62 = type: cell-based; details: HOP-62, Non-Small Cell Lung Cancer; single concentration 10^−5 M
Protocol: as §1

MDA-MB-435 = type: cell-based; details: MDA-MB-435, Melanoma; single concentration 10^−5 M
Protocol: as §1

SK-MEL-5 = type: cell-based; details: SK-MEL-5, Melanoma; single concentration 10^−5 M
Protocol: as §1

RXF 393 = type: cell-based; details: RXF 393, Renal Cancer; single concentration 10^−5 M
Protocol: as §1

CAKI-1 = type: cell-based; details: CAKI-1, Renal Cancer; single concentration 10^−5 M
Protocol: as §1

NCI/ADR-RES = type: cell-based; details: Ovarian Cancer, single concentration 10^−5 M
Protocol: as §1

UACC-257 = type: cell-based; details: UACC-257, Melanoma; single concentration 10^−5 M
Protocol: as §1

SR = type: cell-based; details: Leukemia, single concentration 10^−5 M
Protocol: as §1

SW-620 = type: cell-based; details: SW-620, Colon Cancer; single concentration 10^−5 M
Protocol: as §1

Row | Compound | Growth % (HCT-116) | Growth % (IGROV1) | Growth % (A498) | Growth % (MCF7) | Growth % (UO-31) | Growth % (KM12) | Growth % (SF-539) | Growth % (NCI-H460) | Growth % (HT29) | Growth % (ACHN) | Growth % (A549/ATCC) | Growth % (CCRF-CEM) | Growth % (COLO205) | Growth % (NCI-H522) | Growth % (OVCAR-5) | Growth % (U251) | Growth % (SNB-19) | Growth % (PC-3) | Growth % (MDA-MB-231/ATCC) | Growth % (786-0) | further results
1 | COc1ccc(-c2cc(-c3c[nH]c4ccccc34)nc(-c3c[nH]c4ccccc34)c2C#N)cc1 [4e] | 106.07% | 85.18% | 108.69% | 90.48% | 74.78% | 96.65% | 93.61% | 107.18% | 105.49% | 95.12% | 99.97% | 101.65% | 102.89% | 92.71% | 103.69% | 102.14% | 102.42% | 89.91% | 102.65% | 102.90% | Growth % (OVCAR-8): 98.49%; Growth % (NCI-H322M): 108.08%; Growth % (SF-295): 95.83%; Growth % (UACC-62): 95.53%; Growth % (MALME-3M): 113.82%; Growth % (HCC-2998): 128.75%; Growth % (OVCAR-4): 106.10%; Growth % (HOP-92): 82.07%; Growth % (HOP-62): 90.00%; Growth % (MDA-MB-435): 104.98%; Growth % (SK-MEL-5): 97.12%; Growth % (RXF 393): 94.44%; Growth % (CAKI-1): 84.47%; Growth % (NCI/ADR-RES): 108.38%; Growth % (UACC-257): 107.78%; Growth % (SR): 89.59%; Growth % (SW-620): 113.43%
2 | N#Cc1c(-c2ccc(O)cc2)cc(-c2c[nH]c3ccccc23)nc1-c1c[nH]c2ccccc12 [4j] | 105.38% | 76.43% | 110.66% | 87.55% | 78.37% | 96.89% | 66.62% | 103.74% | 111.48% | 72.15% | 105.12% | 76.51% | 111.37% | 85.59% | 108.44% | 96.90% | 108.35% | 98.38% | 92.33% | 101.37% | Growth % (OVCAR-8): 99.60%; Growth % (NCI-H322M): 101.04%; Growth % (SF-295): 87.00%; Growth % (UACC-62): 96.73%; Growth % (MALME-3M): 114.20%; Growth % (HCC-2998): 126.05%; Growth % (OVCAR-4): 94.07%; Growth % (HOP-92): 125.42%; Growth % (HOP-62): 94.38%; Growth % (MDA-MB-435): 90.35%; Growth % (SK-MEL-5): 84.85%; Growth % (RXF 393): 83.24%; Growth % (CAKI-1): 90.60%; Growth % (NCI/ADR-RES): 102.41%; Growth % (UACC-257): 108.53%; Growth % (SR): 76.19%; Growth % (SW-620): 108.39%
